Laboratory results reported in patent US5182386A (priority 1991, dated 1993).

How the values were obtained:
GABAa receptor = GABAa receptor (benzodiazepine site) binding, displacement of 3H-RO15-1788 [3H-Flumazenil]; conditions: rat cortical tissue; 0.5 nM 3H-RO15-1788; 30 min at 4° C.
Procedure: Assays are carried out as described in Thomas and Tallman (J. Bio. Chem. 156: 9838-9842, J. Neurosci. 3:433-440, 1983). Rat cortical tissue is dissected and homogenized in 25 volumes (w/v) of 0.05M Tris HCl buffer (pH 7.4 at 4° C.). The tissue homogenate is centrifuged in the cold (4° ) at 20,000×g for 20'. The supernatant is decanted and the pellet is rehomogenized in the same volume of buffer and again centrifuged at 20,000×g. The supernatant is decanted and the pellet is frozen at -20° C. overnight. The pellet is then thawed and rehomogenized in 25 volume (original wt/vol) of buffer and the procedure is carried out twice. The pellet is finally resuspended in 50 volumes (w/vol of 0.05M Tris HCl buffer (pH 7.4 at […]).
Incubations contain […] of tissue homogenate, […] of radioligand 0.5 nM (^3 H-RO15-1788 [^3 H-Flumazenil] specific activity 80 Ci/mmol), drug or blocker and buffer to a total volume of […]. Incubations are carried for 30 min at 4° C. then are rapidly filtered through GFB filters to separate free and bound ligand. Filters are washed twice with fresh 0.05M Tris HCl buffer (pH 7.4 at 4° C. ) and counted in a liquid scintillation counter. […] diazepam is added to some tubes to determine nonspecific binding. Data are collected in triplicate determinations, averaged and % inhibition of total specific binding is calculated. Total Specific Binding=Total-Nonspecific. In some cases, the amounts of unlabeled drugs is varied and total displacement curves of binding are carried out. Data are converted to a form for the calculation of IC50 and Hill Coefficient (nH).

GABA receptor = conditions: Tallman et al., 1978; cited from earlier work

Row | Structure (SMILES) | IC50 (GABAa receptor) [µM] | block of enhancement of benzodiazepine binding by GABA agonists (GABA receptor)
1 | COc1ccc(-c2nc3c[nH]c4ccccc4n-3c2=O)cc1 [Compound 1, 2-(4-methoxyphenyl)-imidazo-[1,2-a]-quinoxalin-1(5H)-one] | 0.033 | 
2 | O=c1c(-c2ccccc2)nc2c[nH]c3ccccc3n1-2 [Compound 2, 2-Phenyl-imidazo-[1,2-a]-quinoxalin-1(5H)-one] | 0.033 | 
3 | CN1CCc2cc3c(cc2C1C1OC(=O)c2c1ccc1c2OCO1)OCO3 (single isomer, unassigned; (+)) [(+) bicuculline] |  | blocked
4 | CN1CCc2cc3c(cc2C1C1OC(=O)c2c1ccc1c2OCO1)OCO3 (single isomer, unassigned; (-)) [(-) bicuculline] |  | much less active
5 | COc1cccc(-c2nc3c[nH]c4ccccc4n-3c2=O)c1 [Compound 3, 2-(3-Methoxyphenyl)-imidazo-[1,2-a]-quinoxalin-1(5H)-one] | 0.07 | 
